Patent US20060189530A1 (Bayer Corporation, priority 1996, published 2006)
Where “and” joins values, the source holds several entries; their conditions need not be identical. Identical values can stand only once. Ends that are not written are not given here.

What was measured:
[1] = system: food intake of Wistar rats; experiment: In vivo feeding after ICV injection in rats; set-up: species or system rat; conditions: for Feeding: ICV, 1-6 nmoles peptide, chow consumed in 2 hours; for Feeding response in rats (in words): in vivo feeding model
Procedure: Adult male Wistar rats were surgically implanted with a chronic intracerebral ventricular (ICV) cannula (Plastic Products, Roanoke, Va.) using a stereotaxic instrument. Several days after the surgery, 1-6 nmoles of each peptide (or saline) was injected into the lateral ventricle of 4-12 rats in a volume of 5-10 μl. The quantity of rodent chow consumed in a 2 hour period was measured.

human NPY Y5 receptor [2] = biological target: T1, human NPY Y5 receptor (human, UniProt Q15761 1-445); experiment: [125I]PYY competition, membranes of stable 293 clone 293.hY5.sb.8
T1 construct: also called HUMAN Clone
T1 sequence: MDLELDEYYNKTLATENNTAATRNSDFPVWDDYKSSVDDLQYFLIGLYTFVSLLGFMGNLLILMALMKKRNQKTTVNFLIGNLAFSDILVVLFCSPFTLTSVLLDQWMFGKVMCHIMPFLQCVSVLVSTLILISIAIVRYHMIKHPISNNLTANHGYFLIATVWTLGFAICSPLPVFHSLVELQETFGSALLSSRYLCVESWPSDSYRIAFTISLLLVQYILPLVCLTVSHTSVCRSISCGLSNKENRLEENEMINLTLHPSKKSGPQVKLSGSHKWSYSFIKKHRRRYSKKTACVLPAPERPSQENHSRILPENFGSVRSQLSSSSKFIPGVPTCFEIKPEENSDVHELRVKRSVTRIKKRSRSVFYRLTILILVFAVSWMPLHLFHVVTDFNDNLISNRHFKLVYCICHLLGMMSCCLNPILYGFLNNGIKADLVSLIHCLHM

[3] = biological target: T2, rat NPY Y5 receptor, Y861 clone (rat, UniProt Q63634 1-445); experiment: [125I]PYY competition, membranes of stable 293S clone 293S.Y861.2
T2 sequence: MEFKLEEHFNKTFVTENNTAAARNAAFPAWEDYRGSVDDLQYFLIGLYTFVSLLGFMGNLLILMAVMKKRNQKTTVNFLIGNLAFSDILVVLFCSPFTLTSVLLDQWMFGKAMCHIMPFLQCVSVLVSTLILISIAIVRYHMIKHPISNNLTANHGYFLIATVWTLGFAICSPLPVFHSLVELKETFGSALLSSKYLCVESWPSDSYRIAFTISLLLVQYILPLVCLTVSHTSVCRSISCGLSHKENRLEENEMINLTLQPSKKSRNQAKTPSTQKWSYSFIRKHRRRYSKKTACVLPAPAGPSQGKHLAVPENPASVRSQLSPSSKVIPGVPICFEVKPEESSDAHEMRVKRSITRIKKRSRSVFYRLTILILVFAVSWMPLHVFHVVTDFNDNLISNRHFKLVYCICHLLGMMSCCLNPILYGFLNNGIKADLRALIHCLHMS

Rat Y2 (clone) = biological target: T3, Rat Y2 (clone) (Rattus norvegicus, UniProt Q9ERC0); experiment: [125I]PYY binding assay for rat Y2 receptor
T3 sequence (Q9ERC0 1-381): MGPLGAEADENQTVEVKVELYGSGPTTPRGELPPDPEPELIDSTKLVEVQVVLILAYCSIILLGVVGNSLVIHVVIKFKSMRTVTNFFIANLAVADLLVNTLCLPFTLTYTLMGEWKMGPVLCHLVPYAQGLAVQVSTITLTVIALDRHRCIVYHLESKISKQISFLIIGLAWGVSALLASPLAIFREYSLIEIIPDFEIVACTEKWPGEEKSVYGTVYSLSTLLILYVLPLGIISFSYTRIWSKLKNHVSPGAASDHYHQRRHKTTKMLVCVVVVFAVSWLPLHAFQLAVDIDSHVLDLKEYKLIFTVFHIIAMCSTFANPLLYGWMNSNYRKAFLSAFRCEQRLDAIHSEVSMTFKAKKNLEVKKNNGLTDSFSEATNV

Rat Y1 (clone) = biological target: T4, Rat Y1 (clone) (Rattus norvegicus, UniProt P21555); experiment: [125I]PYY binding assay for rat Y1 receptor
T4 sequence (P21555 1-382): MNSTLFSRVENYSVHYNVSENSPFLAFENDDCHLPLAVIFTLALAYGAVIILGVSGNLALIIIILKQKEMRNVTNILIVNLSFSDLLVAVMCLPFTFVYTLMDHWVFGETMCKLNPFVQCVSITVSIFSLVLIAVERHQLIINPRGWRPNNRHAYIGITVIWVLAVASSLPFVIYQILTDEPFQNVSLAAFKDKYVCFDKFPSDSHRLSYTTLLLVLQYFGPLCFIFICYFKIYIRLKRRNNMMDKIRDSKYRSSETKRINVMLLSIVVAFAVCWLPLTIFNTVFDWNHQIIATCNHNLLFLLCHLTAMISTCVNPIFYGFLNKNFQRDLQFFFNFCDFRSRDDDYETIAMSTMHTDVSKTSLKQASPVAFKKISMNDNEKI

human NPY Y5 receptor [4] = biological target: T5, human NPY Y5 receptor (Homo sapiens, UniProt Q15761); experiment: [125I]PYY competition binding, human Y5 clone transiently expressed in COS-7 membranes; conditions: transient COS-7 membranes, ± SEM, read-out: NPY Y5 binding affinity Ki, HUMAN Clone
T5 construct: containing the full length open reading frame encoding the receptor; expressed in transfected cells
T5 sequence (Q15761 1-445): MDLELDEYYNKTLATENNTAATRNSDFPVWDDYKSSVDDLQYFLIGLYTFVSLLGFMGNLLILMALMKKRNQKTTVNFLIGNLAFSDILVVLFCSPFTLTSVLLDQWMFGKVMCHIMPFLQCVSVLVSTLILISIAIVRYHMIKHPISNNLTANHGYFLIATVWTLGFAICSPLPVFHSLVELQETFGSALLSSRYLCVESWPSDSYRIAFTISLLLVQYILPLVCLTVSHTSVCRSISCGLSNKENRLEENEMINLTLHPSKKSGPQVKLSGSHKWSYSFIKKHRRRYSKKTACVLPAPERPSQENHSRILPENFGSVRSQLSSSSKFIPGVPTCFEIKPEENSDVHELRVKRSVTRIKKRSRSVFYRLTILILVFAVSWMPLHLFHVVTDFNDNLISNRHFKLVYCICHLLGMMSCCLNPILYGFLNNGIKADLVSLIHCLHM

[5] = biological target: T6, rat NPY Y5 receptor (6B clone) (Rattus norvegicus, UniProt Q63634, L61P); experiment: [125I]PYY competition binding, rat Y5 6B clone transiently expressed in COS-7 membranes; conditions: transient COS-7 membranes, ± SEM, read-out: NPY Y5 binding affinity Ki, RAT 6B Clone
T6 construct: expressed in transfected cells; host or cells: COS-7 (transient), membranes
T6 sequence (Q63634 1-445 L61P): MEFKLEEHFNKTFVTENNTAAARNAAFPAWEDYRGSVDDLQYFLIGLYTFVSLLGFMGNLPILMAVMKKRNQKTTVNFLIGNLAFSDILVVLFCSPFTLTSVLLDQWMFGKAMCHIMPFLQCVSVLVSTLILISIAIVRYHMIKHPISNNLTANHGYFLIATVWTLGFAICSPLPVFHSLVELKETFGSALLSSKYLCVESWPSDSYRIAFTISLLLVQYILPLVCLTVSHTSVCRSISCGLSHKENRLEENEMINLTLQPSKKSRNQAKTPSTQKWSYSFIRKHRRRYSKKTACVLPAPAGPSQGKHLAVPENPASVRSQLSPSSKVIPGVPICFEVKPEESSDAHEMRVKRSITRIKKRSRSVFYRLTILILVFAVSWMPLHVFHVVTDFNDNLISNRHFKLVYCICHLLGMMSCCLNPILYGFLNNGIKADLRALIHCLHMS
Procedure: Cells at 70% confluency were transfected with Y5 DNA using the Lipofectamine method (GIBCO-BRL). 15 μg DNA and 90 μl Lipofectamine were added to each flask. Media was completely replaced 24 hours post transfection, and membranes were harvested 24 hours later.
The media was removed from each flask of transfected cells, and the cells were washed twice with 20 ml ice-cold phosphate buffered saline. The cells were scraped from the flask in 5 ml of Tris buffer (20 mM Tris-HCl and 5 mM EDTA, pH 7.7), and then transferred to a centrifuge tube. Each flask was washed with an additional 5 ml of Tris buffer and combined in the centrifuge tube. The cells were polytroned for 2×10 seconds (12 mm probe, 7000-8000 rpm) and centrifuged 5 minutes (Centra 7R, International Equipment Co., Needham Heights, Mass.) at 800 rpm and 4° C. […] Protein concentration was measured using the Bio-Rad kit pursuant to the standard manufacturer's protocol (Biorad Laboratories, Hercules, Calif.),with bovine IgG as the standard. […]
(§1) After a 2 hour incubation at room temperature with constant mixing, the samples were aspirated on a vacuum manifold. […] The individual wells were punched into 12×75 mm plastic tubes, and counted on a Wallac (Gaithersburg, Md.) gamma counter. Binding data were analyzed using the nonlinear regression curve-fitting program RS/1 (BBN Software Products Corp., Cambridge, Mass.). […]

[6] = biological target: T7, rat NPY Y5 receptor (Y861 clone) (Rattus norvegicus, UniProt Q63634); experiment: [125I]PYY competition binding, rat Y5 Y861 clone transiently expressed in COS-7 membranes; set-up: expressed in transfected cells; host or cells: COS-7 (transient), membranes; conditions: transient COS-7 membranes, ± SEM, read-out: NPY Y5 binding affinity Ki, RAT Y861 Clone
T7 sequence (Q63634 1-445): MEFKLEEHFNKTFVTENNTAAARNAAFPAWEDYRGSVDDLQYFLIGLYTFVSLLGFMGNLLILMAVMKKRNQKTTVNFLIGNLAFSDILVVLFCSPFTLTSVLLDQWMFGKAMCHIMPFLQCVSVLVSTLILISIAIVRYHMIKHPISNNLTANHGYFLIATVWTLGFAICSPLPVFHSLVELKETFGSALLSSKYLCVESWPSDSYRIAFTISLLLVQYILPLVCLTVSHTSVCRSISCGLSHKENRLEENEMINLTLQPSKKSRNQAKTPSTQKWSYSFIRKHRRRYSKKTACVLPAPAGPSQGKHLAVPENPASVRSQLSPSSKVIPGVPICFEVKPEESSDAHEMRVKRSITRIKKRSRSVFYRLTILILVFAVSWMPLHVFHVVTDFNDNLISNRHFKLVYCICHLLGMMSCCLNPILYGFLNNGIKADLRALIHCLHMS
Procedure: Monkey kidney cells (COS-7) were maintained in T-175 cm^2 flasks (NUNC) at 37° C. with 5% CO2 in a humidified atmosphere. Cells were grown in Dulbecco's Modified Eagle Medium (DMEM) supplemented with 2 mM glutamine, 10% fetal bovine serum, 1 mM sodium pyruvate, and antibiotic/antimycotic. Cells at 70% confluency were transfected with Y5 DNA using the Lipofectamine method (GIBCO-BRL). 15 μg DNA and 90 μl Lipofectamine were added to each flask. Media was completely replaced 24 hours post transfection, and membranes were harvested 24 hours later.
The media was removed from each flask of transfected cells, and the cells were washed twice with 20 ml ice-cold phosphate buffered saline. The cells were scraped from the flask in 5 ml of Tris buffer (20 mM Tris-HCl and 5 mM EDTA, pH 7.7), and then transferred to a centrifuge tube. […] Protein concentration was measured using the Bio-Rad kit pursuant to the standard manufacturer's protocol (Biorad Laboratories, Hercules, Calif.),with bovine IgG as the standard. […]
as §1

human NPY Y5 receptor [7] = biological target: T1, human NPY Y5 receptor; experiment: [125I]PYY competition, membranes of transiently transfected COS-7 cells; individual experiment
Procedure: The binding assays were performed on GF/C Millipore (Bedford, Mass.) 96-well plates pretreated with 0.02% polyethylenimine (PEI) for at least 2 hours prior to use. The PEI was aspirated from the plates on a vacuum manifold immediately before the samples were added to the wells. All peptides, tissue and radioligand were diluted with binding buffer (25 mM Tris, 120 mM NaCl, 5 mM KCl, 1.2 MM KH₂PO₄, 2.5 mM CaCl₂, 1.2 mM MgSO₄, 0.1% BSA and 0.5 mg/ml bacitracin, pH 7.4).
After a 2 hour incubation at room temperature with constant mixing, the samples were aspirated on a vacuum manifold. The wells were washed with three 200 μl aliquots of ice-cold binding buffer. The individual wells were punched into 12×75 mm plastic tubes, and counted on a Wallac (Gaithersburg, Md.) gamma counter. Binding data were analyzed using the nonlinear regression curve-fitting program RS/1 (BBN Software Products Corp., Cambridge, Mass.).
Each point is the average value of triplicate determinations from a representative experiment. […] Kᵢ values were calculated from the IC₅₀ values using the Cheng-Prusoff correction, such that Kᵢ=IC₅₀/(1±(L/Kd)), where L is the radioligand concentration and Kd is the dissociation constant.

[8] = biological target: T2, rat NPY Y5 receptor, Y861 clone; experiment: cell-based or functional assay

In the case of (22-36)NPY [r/h(22-36)NPY], the Feeding [1] is reported as <3 g/2 h.

Molecule (13-36)PYY (peptide) has a Ki (human NPY Y5 receptor [2]) of 24 nM and a Ki [3] of 29 nM.

For (Leu^31Pro^34)(3-36)NPY [(LP)(3-36)NPY], the Feeding [1] was >5 g/2 h and the “Feeding response in rats (in words)” value [1] was “stimulates feeding”.

(3-36)NPY [p(3-36)NPY] was tested, and the Feeding [1] was >5 g/2 h, the “Feeding response in rats (in words)” value [1] was “stimulate feeding” and the “Affinity for Y2 receptor (in words)” value (Rat Y2 (clone)) was “binds preferentially”. For the same molecule, the “Affinity for Y1 receptor (in words)” value (Rat Y1 (clone)) was “much weaker”.

In the case of (18-36)NPY [p(18-36)NPY], the Feeding [1] is reported as <3 g/2 h.

(20-36)NPY [r/h(20-36)NPY] was tested, and the Feeding [1] was <3 g/2 h and the “Feeding response in rats (in words)” value [1] was “do not elicit feeding”.

For (Leu^31Pro^34)NPY [p(LP)NPY], the Feeding [1] was >5 g/2 h and the “Feeding response in rats (in words)” value [1] was “stimulate feeding”.

(26-36)NPY [r/h(26-36)NPY] was tested, and the Feeding [1] was <3 g/2 h.

NC(N)=NCCC[C@@H](NC(=O)C(c1ccccc1)c1ccccc1)C(=O)NCc1ccc(O)cc1 [BIBP3226] was tested, and the Ki (human NPY Y5 receptor [4]) was > 1000 nM, the Ki [5] was > 1000 nM and the Ki [6] was > 1000 nM.

For (2-36)NPY [r/h(2-36)NPY], the Feeding [1] was >5 g/2 h.

Neuropeptide Y [r/hNPY] was tested, and the Feeding [1] was >5 g/2 h.

In the case of (Leu^31Pro^34)PYY [h(LP)PYY], the Feeding [1] is reported as >5 g/2 h.

With (10-36)NPY [r/h(10-36)NPY] the Feeding [1] was <3 g/2 h.

B1: r(13-36)NPY (peptide, UniProt P07808 42-65, looked up)
peptide: PAEDMARYYSALRHYINLITRQRY
modifications: ends and bridges not checked
notes: range 13-36; it may be a misprint for r(13-36)PYY (rat NPY is elsewhere written r/h)
With B1 the Ki (human NPY Y5 receptor [7]) was 89 nM and 65 nM.

APLEPVYPGDNATPEQMAQYAADLRRYINMLTRPRY (peptide, UniProt P01298 30-65, looked up) [hPP (human pancreatic polypeptide)] was tested, and the “EC50, forskolin-stimulated adenylate cyclase (cAMP), 293S.Y861.2 cells” value [8] was 1 nM.
